The values below come from ChEMBL document CHEMBL1126482, “Novel Y2-selective, reduced-size agonists of neuropeptide Y” (Bioorg Med Chem Lett, 1993).

In assay [1] the target is T1, Neuropeptide Y receptor type 1 (Homo sapiens, UniProt P25929).
T1 sequence (P25929 whole entry): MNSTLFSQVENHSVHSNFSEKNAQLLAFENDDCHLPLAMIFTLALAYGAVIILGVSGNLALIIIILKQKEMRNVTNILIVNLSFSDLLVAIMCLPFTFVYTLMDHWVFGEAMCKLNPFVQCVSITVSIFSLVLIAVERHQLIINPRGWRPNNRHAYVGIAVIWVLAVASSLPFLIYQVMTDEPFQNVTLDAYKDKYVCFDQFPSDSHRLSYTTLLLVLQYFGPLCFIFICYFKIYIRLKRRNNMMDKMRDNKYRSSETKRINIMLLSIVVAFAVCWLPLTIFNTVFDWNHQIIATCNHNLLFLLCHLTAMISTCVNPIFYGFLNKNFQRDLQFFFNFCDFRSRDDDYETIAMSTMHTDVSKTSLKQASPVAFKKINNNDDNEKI
In words: Compound was evaluated for its inhibitory activity against human neuropeptide Y1 receptor expressing SK-N-MC cells. Type of assay: cell-based.

Assay [2] concerns the target T2, Neuropeptide Y receptor type 2 (Homo sapiens, UniProt P49146).
T2 sequence (P49146 whole entry): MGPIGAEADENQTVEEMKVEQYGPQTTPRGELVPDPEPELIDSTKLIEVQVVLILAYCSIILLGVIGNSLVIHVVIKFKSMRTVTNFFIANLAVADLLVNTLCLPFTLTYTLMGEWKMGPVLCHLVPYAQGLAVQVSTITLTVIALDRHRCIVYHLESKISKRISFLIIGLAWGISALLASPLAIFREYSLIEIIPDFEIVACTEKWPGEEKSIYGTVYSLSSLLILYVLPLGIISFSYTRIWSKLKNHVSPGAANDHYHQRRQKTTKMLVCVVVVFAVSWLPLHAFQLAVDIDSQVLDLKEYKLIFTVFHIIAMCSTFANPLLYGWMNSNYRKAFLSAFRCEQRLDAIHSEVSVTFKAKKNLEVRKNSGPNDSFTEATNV
In words: Compound was evaluated for its inhibitory activity against human neuropeptide Y2 receptor expressing LN319 cells. Type of assay: cell-based.

The species entered for another assay is Rattus norvegicus. Kind of assay: Compound was evaluated for its ability to inhibit electrically evoked rat vas deferens contractions. Type of assay: functional.

Square brackets hold non-standard residues; d marks the D form. Peptide text beside a SMILES is read from it. Cha = N[C@@H](CC1CCCCC1)C(=O)O

Turning to `CC[C@H](C)[C@H](NC(=O)[C@H](Cc1ccc(O)cc1)NC(=O)[C@H](Cc1c[nH]cn1)NC(=O)[C@H](CCCN=C(N)N)NC(C)=O)C(=O)N[C@@H](CC(N)=O)C(=O)N[C@@H](CC(C)C)C(=O)N[C@@H](CC1CCCCC1)C(=O)N[C@H](C(=O)N[C@@H](CCCN=C(N)N)C(=O)N[C@@H](CCC(N)=O)C(=O)N[C@@H](CCCN=C(N)N)C(=O)N[C@@H](Cc1ccc(O)cc1)C(=O)O)[C@@H](C)O` (Ac-RHYINL[Cha]TRQRY-OH), the IC50 in assay [1] (sk-n-mc) was 39 nM; in assay [2], 5 nM.

As to `CC[C@H](C)[C@H](NC(=O)[C@H](Cc1ccc(O)cc1)NC(=O)[C@H](Cc1c[nH]cn1)NC(=O)[C@H](CCCN=C(N)N)NC(C)=O)C(=O)N[C@@H](CC(N)=O)C(=O)N[C@@H](CC1CCCCC1)C(=O)N[C@H](C(=O)N[C@H](C(=O)N[C@@H](CCCN=C(N)N)C(=O)N[C@@H](CCC(N)=O)C(=O)N[C@@H](CCCN=C(N)N)C(=O)N[C@@H](Cc1ccc(O)cc1)C(=O)O)[C@@H](C)O)[C@@H](C)CC` (Ac-RHYIN[Cha]ITRQRY-OH), the IC50 was found to be 44000 nM in assay [1] (sk-n-mc) and 8 nM in assay [2].

Regarding `CC[C@H](C)[C@H](NC(=O)[C@H](Cc1ccc(O)cc1)NC(=O)[C@H](Cc1c[nH]cn1)NC(=O)[C@H](CCCN=C(N)N)NC(C)=O)C(=O)N[C@@H](CC(N)=O)C(=O)N[C@@H](CC1CCCCC1)C(=O)N[C@@H](CC1CCCCC1)C(=O)N[C@H](C(=O)N[C@@H](CCCN=C(N)N)C(=O)N[C@@H](CCC(N)=O)C(=O)N[C@@H](CCCN=C(N)N)C(=O)N[C@@H](Cc1ccc(O)cc1)C(=O)O)[C@@H](C)O` (Ac-RHYIN[Cha][Cha]TRQRY-OH), the results for the IC50 in assay [1] (sk-n-mc) and in assay [2] were 26000 nM and 3 nM, respectively.

As for Ac-RHYINLITRQRY-OH, the IC50 was 35000 nM in assay [1] and 4500 nM in the assay listed under Rattus norvegicus.
